Test results as given in PMC5902437, “Structural studies on radiopharmaceutical DOTA-minigastrin analogue (CP04) complexes and their interaction with CCK2 receptor” (EJNMMI Research, 2018).

Legend:
CCK-2R = details: literature SAR of CCK/gastrin derivatives; cited from earlier work
Excerpt: Table 3 SAR data from CCK/gastrin derivatives and their correspondence to our model | column: SAR data from CCK/gastrin derivatives

human CCK-2R = molecular target: T1, human CCK-2R (Homo sapiens, UniProt P32239); assay: Competition binding assay with [^90Y]Y-CP04 as competitive radioligand in A431-CCK2R(+) cells; details: 0.5 mln per well, radioligand [^90Y]Y-CP04 0.24 pmol per well, 1 h at 37 °C, competitor 10^-6–10^-13 M, cell-associated radioactivity by gamma counter, mean ± SD, n = 3 experiments in triplicate, read-out: apparent 50% inhibitory concentration (IC50) for hCCK-2R
T1 construct: expressed in transfected cells; host or cells: A431 human epidermoid carcinoma cells, stably transfected (gift of Prof. Luigi Aloj)
T1 sequence (P32239 1-447): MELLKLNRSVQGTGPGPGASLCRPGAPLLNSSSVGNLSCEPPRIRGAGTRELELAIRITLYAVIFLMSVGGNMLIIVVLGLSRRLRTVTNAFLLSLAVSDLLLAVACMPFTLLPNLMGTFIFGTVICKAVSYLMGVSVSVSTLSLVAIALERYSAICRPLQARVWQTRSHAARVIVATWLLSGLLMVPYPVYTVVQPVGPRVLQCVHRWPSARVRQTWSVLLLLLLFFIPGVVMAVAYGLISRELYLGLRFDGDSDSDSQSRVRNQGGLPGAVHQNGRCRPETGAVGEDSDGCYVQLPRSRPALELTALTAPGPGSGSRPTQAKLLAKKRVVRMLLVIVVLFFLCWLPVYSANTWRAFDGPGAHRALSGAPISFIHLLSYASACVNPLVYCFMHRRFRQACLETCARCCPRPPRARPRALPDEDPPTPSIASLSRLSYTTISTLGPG
Description: The A431 human epidermoid carcinoma cell line stably transfected with the human CCK2R (A431-CCK2R(+)) and mock transfected with an empty vector alone (A431-CCK2R(−)) were kindly provided by Prof. Luigi Aloj.
The cells were cultured in Dulbecco’s modified Eagle’s medium (DMEM) supplemented with 10% of heat-inactivated fetal bovine serum and antibiotics (penicillin 100 U/mL and streptomycin 100 μg/mL) and cultivated at 37 °C in 5% CO2.
The binding affinity (the apparent 50% inhibitory concentration (IC50)) of [^natGa]Ga-CP04 and [^natLu]Lu-CP04 complexes for CCK2 receptor was determined in A431-CCK2R(+) cell line using [^90Y]Y-CP04 as a competitive radioligand according to the method used by Roosenburg et al.. [^90Y]Y-CP04 was obtained with a molar activity of 2.05 GBq/μmol calculated at the time of experiment and 98% radiochemical purity as determined by radio HPLC method. Human epidermoid carcinoma (A431-CCK2(+)) cells were subcultured overnight in 12-well plates in concentration of 0.5 mln per well. Before the experiments, the cells were washed with DMEM medium and then [^90Y]Y-labeled CP04 (2.05 GBq/μmol) was added to the cells in amount of 0.24 pmol per well (ca. 80,000 cpm) and incubated for 1 h at 37 °C with increasing concentrations (10^−6–10^−13 M) of the Ga and Lu complexes of CP04 peptide. […]

Row | IC50 (human CCK-2R) [nM] | Compound | binding to the receptor (SAR data in words) (CCK-2R)
1 | – | H-Trp-Met-Asp-Phe-NH2 [CCK-4, C-terminal tetrapeptide of CCK] | 1. C-terminal sequence in cholecystokinins and gastrins is a condition necessary and sufficient for high affinity towards the receptor 2. Even a fragment as small as a tetrapeptide H-Trp-Met-Asp-Phe-NH2 (CCK-4) exhibits relatively good binding
2 | 1.02 ± 0.28 | CSCC[C@H](NC(=O)[C@H](Cc1c[nH]c2ccccc12)NC(=O)CNC(=O)[C@H](Cc1ccc(O)cc1)NC(=O)[C@H](C)NC(=O)[C@@H](CCC(=O)O)NC(=O)[C@@H](CCC(=O)O)NC(=O)[C@@H](CCC(=O)O)NC(=O)[C@@H](CCC(=O)O)NC(=O)[C@@H](CCC(=O)O)NC(=O)[C@@H](CCC(=O)O)NC(=O)CN1CCN(CC(=O)O)CCN(CC(=O)O)CCN(CC(=O)O)CC1)C(=O)N[C@@H](CC(=O)O)C(=O)N[C@@H](Cc1ccccc1)C(N)=O [[^natLu]Lu-CP04, metal not drawn] | –
3 | 1.15 ± 0.39 | CSCC[C@H](NC(=O)[C@H](Cc1c[nH]c2ccccc12)NC(=O)CNC(=O)[C@H](Cc1ccc(O)cc1)NC(=O)[C@H](C)NC(=O)[C@@H](CCC(=O)O)NC(=O)[C@@H](CCC(=O)O)NC(=O)[C@@H](CCC(=O)O)NC(=O)[C@@H](CCC(=O)O)NC(=O)[C@@H](CCC(=O)O)NC(=O)[C@@H](CCC(=O)O)NC(=O)CN1CCN(CC(=O)O)CCN(CC(=O)O)CCN(CC(=O)O)CC1)C(=O)N[C@@H](CC(=O)O)C(=O)N[C@@H](Cc1ccccc1)C(N)=O [[^natGa]Ga-CP04, metal not drawn] | –
